Experiments:
Assay type in all cases: physicochemical
[1] = Molar extinction coefficient of i-line (365 nm), UV-visible absorbance in acetonitrile; settings: 0.25 mmol/L in acetonitrile, cell length 1 cm
Procedure: The synthesized photoacid generator was diluted to 0.25 mmol/L with acetonitrile, and using an ultraviolet-visible spectrophotometer (UV-2550 available from SHIMADZU CORPORATION), the absorbance in a range of 200 nm to 500 nm was measured with a cell having an optical path length (a cell length) of 1 cm. The molar extinction coefficient of i-line (365 nm) (ε365) was calculated from the following equation.
[In the equation, […] represents the absorbance at 365 nm.]

[2] = Thermal decomposition temperature (TG/DTA, 2% weight reduction); settings: point of 2% weight reduction; 10° C./minute from 30° C. to 500° C.; nitrogen atmosphere
Procedure: The synthesized photoacid generator was measured for the change in weight under a temperature increasing condition of 10° C./minute from 30° C. to 500° C. under a nitrogen atmosphere using a thermal gravimetric/differential thermal analyzer (TG/DTA 6200, available from Seiko Instruments Inc.), and a point where the weight was reduced by 2% was defined as the thermal decomposition temperature.

[3] = Solvent solubility (butyl acetate, toluene or PGMEA); settings: 25° C.
Procedure: In a test tube, 0.1 g of the synthesized photoacid generator was placed, and an organic solvent (butyl acetate, toluene or PGMEA) was added thereto in 0.2 g portions under a condition where the temperature was adjusted to 25° C. until the photoacid generator was completely dissolved. In this connection, in the case where the photoacid generator was not completely dissolved even when 20 g of the solvent was added, the photoacid generator was evaluated as one that was not dissolved.

Structure (SMILES)	Molar extinction coefficient [1]	Thermal decomposition temperature [2]	Solvent solubility PGMEA [3]	Solvent solubility Butyl acetate [3]	Solvent solubility Toluene [3]
CC(C)(C)c1cc2c3c(cc(C(C)(C)C)cc3c1)C(=O)N(OS(=O)(=O)c1c(F)c(F)c(F)c(F)c1F)C2=O [Example A-33, 3,6-di-tert-butyl-1,8-naphthalimide pentafluorobenzenesulfonate]	6500 L/mol/cm	245 °C	6 wt %	6.5 wt %	6 wt %
CC(C)(C)Cc1cc2c3c(cc(CC(C)(C)C)cc3c1)C(=O)N(OS(=O)(=O)c1c(F)c(F)c(F)c(F)c1F)C2=O [Example A-34, 3,6-dineopentyl-1,8-naphthalimide pentafluorobenzenesulfonate]	6200 L/mol/cm	250 °C	11 wt %	14 wt %	8 wt %
O=C1c2cc(C34CC5CC(CC(C5)C3)C4)cc3cc(C45CC6CC(CC(C6)C4)C5)cc(c23)C(=O)N1OS(=O)(=O)c1c(F)c(F)c(F)c(F)c1F [Example A-35, 3,6-diadamantyl-1,8-naphthalimide pentafluorobenzenesulfonate]	6000 L/mol/cm	251 °C	5.5 wt %	6 wt %	9 wt %
O=C1c2cccc3c(C(F)(F)C(F)(F)C(F)(F)C(F)(F)F)ccc(c23)C(=O)N1OS(=O)(=O)c1c(F)c(F)c(F)c(F)c1F [Example A-36, 4-(nonafluorobutyl)-1,8-naphthalimide pentafluorobenzenesulfonate]	40 L/mol/cm	239 °C	13 wt %	14 wt %	11 wt %
O=C1c2cccc3c(C(F)(F)C(F)(F)C(F)(F)C(F)(F)C(F)(F)C(F)(F)C(F)(F)C(F)(F)F)ccc(c23)C(=O)N1OS(=O)(=O)c1c(F)c(F)c(F)c(F)c1F [Example A-37, 4-(heptadecafluoro-n-octyl)-1,8-naphthalimide pentafluorobenzenesulfonate]	80 L/mol/cm	244 °C	23 wt %	25 wt %	28 wt %
C[Si](C)(C)c1ccc2c3c(cccc13)C(=O)N(OS(=O)(=O)c1c(F)c(F)c(F)c(F)c1F)C2=O [Example A-38, 4-trimethylsilyl-1,8-naphthalimide pentafluorobenzenesulfonate]	5500 L/mol/cm	241 °C	5.5 wt %	5.5 wt %	6 wt %
O=C1c2cccc3c(Cl)ccc(c23)C(=O)N1OS(=O)(=O)c1c(F)c(F)c(F)c(F)c1F [Example A-39, 4-chloro-1,8-naphthalimide pentafluorobenzenesulfonate]	6000 L/mol/cm	225 °C	3.5 wt %	3 wt %	5 wt %
O=C1c2cccc3c(Br)ccc(c23)C(=O)N1OS(=O)(=O)c1c(F)c(F)c(F)c(F)c1F [Example A-40, 4-bromo-1,8-naphthalimide pentafluorobenzenesulfonate]	8500 L/mol/cm	243 °C	3.2 wt %	3 wt %	4.5 wt %
CC(C)Oc1ccc2c3c(cccc13)C(=O)N(OS(=O)(=O)CC13CCC(CC1=O)C3(C)C)C2=O (stereo not drawn) [Example A-41, 4-isopropoxy-1,8-naphthalimide-(+)-10-camphorsulfonate]	16300 L/mol/cm	239 °C	1.8 wt %	1.7 wt %	2 wt %
CCCOc1ccc2c3c(cccc13)C(=O)N(OS(=O)(=O)CC13CCC(CC1=O)C3(C)C)C2=O (stereo not drawn) [Example A-42, 4-n-propoxy-1,8-naphthalimide-(+)-10-camphorsulfonate]	14000 L/mol/cm	245 °C	1.2 wt %	1.5 wt %	2 wt %
CC1(C)C2CCC1(CS(=O)(=O)ON1C(=O)c3cccc4c(OCC(F)(F)C(F)F)ccc(c34)C1=O)C(=O)C2 (stereo not drawn) [Example A-43, 4-(2,2,3,3-tetrafluoro-1-propoxy)-1,8-naphthalimide-(+)-10-camphorsulfonate]	12000 L/mol/cm	231 °C	3 wt %	3 wt %	3.5 wt %
CC1(C)C2CCC1(CS(=O)(=O)ON1C(=O)c3cccc4c(C(=O)Cc5ccccc5)ccc(c34)C1=O)C(=O)C2 (stereo not drawn) [Example A-44, 4-phenylacetyl-1,8-naphthalimide-(+)-10-camphorsulfonate]	3000 L/mol/cm	233 °C	1.8 wt %	1.4 wt %	1.8 wt %
CC1(C)C2CCC1(CS(=O)(=O)ON1C(=O)c3cccc4c(Oc5c(F)c(F)c(F)c(F)c5F)ccc(c34)C1=O)C(=O)C2 (stereo not drawn) [Example A-45, 4-pentafluorophenoxy-1,8-naphthalimide-(+)-10-camphorsulfonate]	12000 L/mol/cm	245 °C	3.5 wt %	4 wt %	4 wt %
CC1(C)C2CCC1(CS(=O)(=O)ON1C(=O)c3cccc4c(Oc5cccc(C(F)(F)F)c5)ccc(c34)C1=O)C(=O)C2 (stereo not drawn) [Example A-46, 4-(3-trifluoromethylphenoxy)-1,8-naphthalimide-(+)-10-camphorsulfonate]	16000 L/mol/cm	243 °C	2.8 wt %	3.5 wt %	3.3 wt %
CC1(C)C2CC[C@@]1(CS(=O)(=O)ON1C(=O)c3cccc4c(Sc5ccccc5)ccc(c34)C1=O)C(=O)C2 [Example A-47, 4-phenylthio-1,8-naphthalimide-(+)-10-camphorsulfonate]	20000 L/mol/cm	244 °C	1.3 wt %	1.8 wt %	1.7 wt %
COc1cc2c3c(cccc3c1)C(=O)N(OS(=O)(=O)C[C@]13CCC(CC1=O)C3(C)C)C2=O [Example A-48, 3-methoxy-1,8-naphthalimide-(+)-10-camphorsulfonate]	7500 L/mol/cm	242 °C	1.5 wt %	2 wt %	1.9 wt %
CCCCC(CC)C(=O)Oc1cc2c3c(cccc3c1)C(=O)N(OS(=O)(=O)CC13CCC(CC1=O)C3(C)C)C2=O (stereo not drawn) [Example A-49, 3-(2-ethylhexanoyloxy)-1,8-naphthalimide-(+)-10-camphorsulfonate]	1500 L/mol/cm	232 °C	8 wt %	11 wt %	9 wt %
CCCC(=O)Oc1cc2c3c(cccc3c1)C(=O)N(OS(=O)(=O)CC13CCC(CC1=O)C3(C)C)C2=O (stereo not drawn) [Example A-50, 3-butyroyloxy-1,8-naphthalimide-(+)-10-camphorsulfonate]	1600 L/mol/cm	237 °C	7.2 wt %	9 wt %	7 wt %

Source: patent US20160368879A1, “PHOTOACID GENERATOR, AND RESIN COMPOSITION FOR PHOTOLITHOGRAPHY” (SAN-APRO LTD., priority 2013, published 2016)
